Assay results published in the NIST ThermoML archive (doi:10.1021/je5010214).

Settings: Liquid, Vibrating tube method

CCCCO [butan-1-ol]
Settings	mass density [kg/m3]
323.15 K, 34081 kPa	811.155
323.15 K, 35113 kPa	811.773
323.15 K, 37953 kPa	813.623
323.15 K, 42011 kPa	816.075
323.15 K, 48025 kPa	819.642
323.15 K, 49934 kPa	820.799
323.15 K, 52114 kPa	821.994
323.15 K, 54964 kPa	823.594
323.15 K, 58045 kPa	825.293
323.15 K, 60050 kPa	826.448
323.15 K, 62131 kPa	827.565
323.15 K, 64999 kPa	829.093
323.16 K, 920.7 kPa	786.888
323.16 K, 27958 kPa	807.28
323.16 K, 30055 kPa	808.674
323.16 K, 33067 kPa	810.61
323.16 K, 40047 kPa	814.861
323.16 K, 44937 kPa	817.856
323.16 K, 66131 kPa	829.687
328.15 K, 97.9 kPa	781.987
328.15 K, 289.9 kPa	782.179
328.15 K, 897.5 kPa	782.733
328.15 K, 994.1 kPa	782.825
328.15 K, 1988.8 kPa	783.741
328.15 K, 2996.7 kPa	784.66
328.15 K, 5013.4 kPa	786.446
328.15 K, 6974.9 kPa	788.15
328.15 K, 9017 kPa	789.881
328.15 K, 10040 kPa	790.727
328.15 K, 24924 kPa	802.164
328.15 K, 27979 kPa	804.324
328.15 K, 29958 kPa	805.68
328.15 K, 32060 kPa	807.104
328.15 K, 33066 kPa	807.772
328.15 K, 33107 kPa	807.703
328.15 K, 34013 kPa	808.285
328.15 K, 35030 kPa	808.989
328.15 K, 38010 kPa	810.915
328.15 K, 39969 kPa	812.181
328.15 K, 41959 kPa	813.311
328.15 K, 44953 kPa	815.144
328.15 K, 47978 kPa	816.959
328.15 K, 49927 kPa	818.128
328.15 K, 51997 kPa	819.32
328.15 K, 54947 kPa	821.045
328.15 K, 57939 kPa	822.658
328.15 K, 59991 kPa	823.77
328.15 K, 61982 kPa	824.89
328.15 K, 65032 kPa	826.439
328.15 K, 66046 kPa	826.965
328.16 K, 501 kPa	782.371
328.16 K, 12210 kPa	792.522
328.16 K, 15055 kPa	794.783
328.16 K, 18061 kPa	797.122
328.16 K, 20279 kPa	798.799
328.16 K, 22013 kPa	800.057
333.15 K, 532.6 kPa	779.903
333.15 K, 897.8 kPa	780.245
333.15 K, 1987.2 kPa	781.249
333.15 K, 3023.4 kPa	782.177
333.15 K, 4997.4 kPa	783.921
333.15 K, 7002.4 kPa	785.686
333.15 K, 9032 kPa	787.401
333.15 K, 10210 kPa	788.367
333.15 K, 15008 kPa	792.251
333.15 K, 22034 kPa	797.567
333.15 K, 28040 kPa	801.782
333.15 K, 30016 kPa	803.156
333.15 K, 32067 kPa	804.524
333.15 K, 34086 kPa	805.827
333.15 K, 35075 kPa	806.492
333.15 K, 37894 kPa	808.332
333.15 K, 40111 kPa	809.759
333.15 K, 41947 kPa	810.938
333.15 K, 44974 kPa	812.823
333.15 K, 45490 kPa	813.093
333.15 K, 47936 kPa	814.509
333.15 K, 49920 kPa	815.727
333.15 K, 51953 kPa	816.927
333.15 K, 54876 kPa	818.691
333.15 K, 58057 kPa	820.5
333.15 K, 59993 kPa	821.547
333.15 K, 62049 kPa	822.689
333.15 K, 64970 kPa	824.293
333.15 K, 66005 kPa	824.853
333.16 K, 87.7 kPa	779.482
333.16 K, 303.5 kPa	779.691
333.16 K, 1003 kPa	780.346
333.16 K, 12011 kPa	789.847
333.16 K, 17992 kPa	794.568
333.16 K, 20036 kPa	796.123
333.16 K, 25027 kPa	799.667
333.16 K, 33073 kPa	805.134
338.15 K, 80.9 kPa	775.106
338.15 K, 309.8 kPa	775.333
338.15 K, 561.6 kPa	775.578
338.15 K, 898.5 kPa	775.911
338.15 K, 1014.1 kPa	776.019
338.15 K, 2936.1 kPa	777.859
338.15 K, 5018.6 kPa	779.821
338.15 K, 10034 kPa	784.276
338.15 K, 14885 kPa	788.349
338.15 K, 17956 kPa	790.925
338.15 K, 19927 kPa	792.473
338.15 K, 22041 kPa	794.077
338.15 K, 25026 kPa	796.362
338.15 K, 29994 kPa	799.911
338.15 K, 32882 kPa	801.907
338.15 K, 33937 kPa	802.603
338.15 K, 35012 kPa	803.345
338.15 K, 39987 kPa	806.717
338.15 K, 41990 kPa	808.025
338.15 K, 44978 kPa	809.926
338.15 K, 47971 kPa	811.881
338.15 K, 49999 kPa	813.099
338.15 K, 52127 kPa	814.375
338.15 K, 57940 kPa	817.865
338.15 K, 60014 kPa	819.058
338.15 K, 65012 kPa	821.872
338.15 K, 66057 kPa	822.451
338.16 K, 2000.2 kPa	776.987
338.16 K, 6917.3 kPa	781.55
338.16 K, 9046.9 kPa	783.457
338.16 K, 11959 kPa	785.981
338.16 K, 27976 kPa	798.446
338.16 K, 31949 kPa	801.318
338.16 K, 37962 kPa	805.345
338.16 K, 54992 kPa	816.085
338.16 K, 62074 kPa	820.252
338.16 K, 67534 kPa	823.221
343.15 K, 73.7 kPa	769.631
343.15 K, 297.3 kPa	769.853
343.15 K, 520.3 kPa	770.07
343.15 K, 911.7 kPa	770.459
343.15 K, 1017.7 kPa	770.563
343.15 K, 1994.6 kPa	771.497
343.15 K, 2332.5 kPa	771.83
343.15 K, 2968.3 kPa	772.434
343.15 K, 4994.8 kPa	774.313
343.15 K, 6976.6 kPa	776.117
343.15 K, 9002.6 kPa	777.941
343.15 K, 10060 kPa	778.847
343.15 K, 12025 kPa	780.506
343.15 K, 14928 kPa	782.929
343.15 K, 17975 kPa	785.398
343.15 K, 19985 kPa	786.983
343.15 K, 22033 kPa	788.56
343.15 K, 25091 kPa	790.858
343.15 K, 28045 kPa	793.012
343.15 K, 30082 kPa	794.441
343.15 K, 32170 kPa	795.891
343.15 K, 33097 kPa	796.546
343.15 K, 35030 kPa	797.771
343.15 K, 37943 kPa	799.701
343.15 K, 40012 kPa	801.058
343.15 K, 41972 kPa	802.307
